Active and inactive are the calls of the source. The rule behind the calls is not given here.
Tests used:
Staphylococcus aureus [1] = test: Antimicrobial activity against Staphylococcus aureus ATCC 43300 assessed as reduction in microbial growth incubated for 18 hrs by broth microdilution method; type: functional
Clostridium perfringens = test: Antimicrobial activity against Clostridium perfringens ATCC 13124 assessed as reduction in microbial growth incubated for 18 hrs by broth microdilution method; type: functional
[2] = Hemolytic activity at human Erythrocyte assessed as hemolysis at 100 microg/ml; type: toxicity, cell-based; conditions: erythrocytes, at 100 µg/mL, read-out: Activity
Staphylococcus aureus [3] = test: Antibiofilm activity against Staphylococcus aureus CMCC 26003 assessed as biofilm eradication at 0.5 to 2 times MIC incubated for 24 hrs by crystal violet staining based analysis; type: functional
Peritoneal macrophage [4] = test: Antiinflammatory activity in mouse Peritoneal macrophage cells assessed as inhibition of LPS-induced IL-6 production at 20 microg/ml incubated for 6 hrs by ELISA analysis; type: functional, cell-based; conditions: dose 20.0 µg/ml
Acinetobacter baumannii [5] = test: Antibiofilm activity against Acinetobacter baumannii ATCC 19606 assessed as inhibition of biofilm formation at 0.5 times MIC incubated for 48 hrs by crystal violet staining based analysis; type: functional
Acinetobacter baumannii [6] = test: In vivo antibacterial activity against Acinetobacter baumannii ATCC19606 infected in BALB/c mouse assessed as reduction in bacterial load in liver at 15 mg/kg, ip measured after 3 hrs; type: functional, organism-based
Acinetobacter baumannii [7] = test: In vivo antibacterial activity against Acinetobacter baumannii ATCC19606 infected in BALB/c mouse assessed as reduction in bacterial load in lung at 15 mg/kg, ip measured after 12 hrs; type: functional, organism-based
Acinetobacter baumannii [8] = test: Drug resistance, ratio of MIC for Acinetobacter baumannii ATCC1960 after 40 passages to MIC for Acinetobacter baumannii ATCC1960 during first exposure; type: functional
Staphylococcus aureus [9] = test: Bactericidal activity against Staphylococcus aureus CMCC 26003 assessed as bacterial eradication incubated at 0.5 hrs in presence of thiourea; type: functional, organism-based
Staphylococcus aureus [10] = test: Antimicrobial activity against Staphylococcus aureus CMCC 26003 assessed as reduction in microbial growth incubated for 18 hrs by broth microdilution method; type: functional
Escherichia coli [11] = test: Antibacterial activity against Escherichia coli ATCC 25922 assessed as increase in intracellular ROS production at 1 times MIC by DCFH-DA staining based assay; type: functional, organism-based
Enterococcus faecalis = test: Antimicrobial activity against Enterococcus faecalis ATCC 29217 assessed as reduction in microbial growth incubated for 18 hrs by broth microdilution method; type: functional
Acinetobacter baumannii [12] = test: In vivo antibacterial activity against Acinetobacter baumannii ATCC19606 infected in BALB/c mouse assessed as reduction in bacterial load in lung at 15 mg/kg, ip measured after 3 hrs; type: functional, organism-based
Acinetobacter baumannii [13] = test: In vivo antibacterial activity against Acinetobacter baumannii ATCC19606 infected in BALB/c mouse assessed as reduction in bacterial load in kidney at 15 mg/kg, ip measured after 3 hrs; type: functional, organism-based
Salmonella enteritidis = test: Antimicrobial activity against Salmonella enterica subsp. enterica serovar Enteritidis ATCC 14028 assessed as reduction in microbial growth incubated for 18 hrs by broth microdilution method; type: functional
Acinetobacter baumannii [14] = test: In vivo antibacterial activity against Acinetobacter baumannii ATCC19606 infected in BALB/c mouse assessed as reduction in bacterial load at 15 mg/kg, ip; type: functional, organism-based; conditions: time 3.0 hrs
Acinetobacter baumannii [15] = test: Antibiofilm activity against Acinetobacter baumannii ATCC 19606 assessed as biofilm eradication incubated for 24 hrs by crystal violet staining based analysis; type: functional, organism-based
Acinetobacter baumannii [16] = test: Antimicrobial activity against Acinetobacter baumannii ATCC19606 assessed as reduction in microbial growth incubated for 18 hrs by broth microdilution method; type: functional
Staphylococcus aureus [17] = test: Antibiofilm activity against Staphylococcus aureus CMCC 26003 assessed as biofilm eradication incubated for 24 hrs by crystal violet staining based analysis; type: functional, organism-based
Staphylococcus aureus [18] = test: Antipersister-activity against Staphylococcus aureus CMCC 26003 assessed as elimination of persister cells at 50 times MIC preincubated adherent persistent cells with colistin incubation for 24 hrs; type: functional
Enterococcus faecium = test: Antimicrobial activity against Enterococcus faecium 34 assessed as reduction in microbial growth incubated for 18 hrs by broth microdilution method; type: functional
Escherichia coli [19] = test: Antimicrobial activity against Escherichia coli CMCC44102 assessed as reduction in microbial growth incubated for 18 hrs by broth microdilution method; type: functional
Escherichia coli [20] = test: Antibacterial activity against Escherichia coli ATCC 25922 assessed as increase in intracellular ROS production at 2 to 5 times MIC by DCFH-DA staining based assay; type: functional, organism-based
Escherichia coli [21] = test: Antibacterial activity against Escherichia coli ATCC 25922 at 1 times MIC in presence of exogenous DNA; type: functional, organism-based
Acinetobacter baumannii [22] = test: In vivo antibacterial activity against Acinetobacter baumannii ATCC19606 infected in BALB/c mouse assessed as survival at 15 mg/kg, ip administered for 12 hrs and measured on day 7; type: functional; conditions: ATCC19606, 168 h, time 7 day
[23] = Acute toxicity in BALB/c mouse assessed as mortality at 10 mg/kg, iv measured for 24 hrs; type: organism-based; conditions: in vivo, read-out: Activity
Cell membrane = test: Disruption of cell membrane integrity in Staphylococcus aureus CMCC 26003 assessed as cell membrane damage at 5 times MIC measured after 30 mins by scanning electron microscopic analysis; type: subcellular
[24] = Acute toxicity in BALB/c mouse assessed as effect on ALT level at 10 mg/kg, iv measured for 24 hrs; type: organism-based; conditions: in vivo
Staphylococcus aureus [25] = test: Antibiofilm activity against Staphylococcus aureus CMCC 26003 assessed as reduction in biofilm formation at 0.5 times MIC incubated for 24 hrs by crystal violet staining based analysis; type: functional; set-up: scale not given: the % may be the effect or the level left
[26] = system: Staphylococcus epidermidis; test: Antimicrobial activity against Staphylococcus epidermidis assessed as reduction in microbial growth incubated for 18 hrs by broth microdilution method; type: functional
[27] = Acute toxicity in BALB/c mouse assessed as mortality at 15 mg/kg, iv measured for 24 hrs; type: organism-based; conditions: in vivo, read-out: Activity
Peritoneal macrophage [28] = test: Antiinflammatory activity in mouse Peritoneal macrophage cells assessed as inhibition of LPS-induced TNF-alpha production at 20 microg/ml incubated for 6 hrs by ELISA analysis; type: functional, cell-based; conditions: dose 20.0 µg/ml
Staphylococcus aureus [29] = test: Antibacterial activity against Staphylococcus aureus CMCC 26003 assessed as increase in intracellular ROS production incubated for 1 hr by DCFH-DA staining based assay; type: functional, organism-based
[30] = Acute toxicity in BALB/c mouse assessed as effect on BUN level at 10 mg/kg, iv measured for 24 hrs; type: organism-based; conditions: in vivo
Pseudomonas aeruginosa = test: Antimicrobial activity against Pseudomonas aeruginosa CMCC10104 assessed as reduction in microbial growth incubated for 18 hrs by broth microdilution method; type: functional

Which results are given for `CC[C@H](C)[C@H](NC(=O)[C@H](CCCNC(=N)N)NC(=O)[C@H](CO)NC(=O)[C@H](Cc1c[nH]cn1)NC(=O)[C@H](CCCNC(=N)N)NC(=O)[C@H](CC(C)C)NC(=O)[C@@H](NC(=O)[C@H](CCCNC(=N)N)NC(=O)CNC(=O)[C@H](CC(C)C)NC(=O)[C@H](CCC(N)=O)NC(=O)[C@H](CCCCN)NC(=O)[C@H](CCCNC(=N)N)NC(=O)[C@@H](NC(=O)[C@H](CCCCN)NC(=O)[C@H](CCCCN)NC(=O)[C@@H](N)Cc1ccccc1)C(C)C)C(C)C)C(=O)N[C@H](C(=O)N[C@H](C(=O)NCC(=O)NCC(=O)N[C@@H](CCCNC(=N)N)C(=O)N[C@@H](CCSC)C(=O)N[C@@H](CCCNC(=N)N)C(=O)N[C@@H](Cc1ccccc1)C(=O)O)C(C)C)[C@@H](C)O`?
MIC (Staphylococcus aureus [1]): 75 µg/mL; MIC (Clostridium perfringens): 2.34 µg/mL; hemolysis at 100 microg/ml [2]: < 5%; Activity (Staphylococcus aureus [3]): 20%; Activity (Peritoneal macrophage [4]): Active; inhibition (INH) (Acinetobacter baumannii [5]): 10%; Activity (Acinetobacter baumannii [6]): Active; Activity (Acinetobacter baumannii [7]): Active; Ratio (Acinetobacter baumannii [8]): 1; Activity (Staphylococcus aureus [9]): Active; MIC (Staphylococcus aureus [10]): 2.34 µg/mL; Activity (Escherichia coli [11]): Active; MIC (Enterococcus faecalis): 4.69 µg/mL; Activity (Acinetobacter baumannii [12]): Active; Activity (Acinetobacter baumannii [13]): Active; MIC (Salmonella enteritidis): 1.17 µg/mL; Activity (Acinetobacter baumannii [14]): Time-dependent-effect; Activity (Acinetobacter baumannii [15]): Active; MIC (Acinetobacter baumannii [16]): 4.69 µg/mL; Activity (Staphylococcus aureus [17]): Active; Activity (Staphylococcus aureus [18]): 50%; MIC (Enterococcus faecium): 18.8 µg/mL; MIC (Escherichia coli [19]): 2.34 µg/mL; Activity (Escherichia coli [20]): Active; Activity (Escherichia coli [21]): Active; survival at 15 mg/kg (Acinetobacter baumannii [22]): 40%; mortality at 24 h [23]: 0%; Activity (Cell membrane): Active; Activity [24]: Non-toxic; Activity (Staphylococcus aureus [25]): 20%; MIC [26]: 18.8 µg/mL; mortality at 24 h [27]: 0%; Activity (Peritoneal macrophage [28]): Active; Activity (Staphylococcus aureus [29]): Dose-dependent-effect; Activity [30]: Non-toxic; MIC (Pseudomonas aeruginosa): 4.69 µg/mL
